These are literature values, as cited in patent US4081530A, “Extended chain derivatives of somatostatin” (Ayerst, McKenna & Harrison Limited, priority 1975, dated 1978).

The conditions of the data set: somatostatin-like activity.

For the substance “[Ala^3,14 ]-somatostatin (AGAKNFFWKTFTSA; Somatostatin-14; UniProt P61278 103-116, looked up, variant C3A C14A) [somatostatin analog synthesised by solid phase methods (Sarantakis et al.)]”, the “activity as share of somatostatin's potency” value is “about 0.01%”.
